# Test results published in patent publication US8257749B2, “Systems providing at least pesticidal activity” (Biolargo Life Technologies, Incorporated, priority 2007, dated 2012).
# Legend:
# enterococci [1] = assay: longer term experiment, sand dosed with pure culture of enterococci and imbibed with iodine solution; assay type: cell-based
# Procedure: (§1) In a first experiment, a natural sample from Santa Monica beach was user. This soil sample was taken from an area close to a storm drain. Concentrations started at 1100 MPN enterococci per 100 gram sediment were used. Wash samples having a concentration of greater than 10 parts per million were used on the soil samples. Enterocci concentrations approached zero for all of five consecutive washes. A longer term experiment was then performed with sand dosed with a pure culture of enterococci, the >10 ppm iodine solution imbibed in the soil, and then autoclaving. The bacterial level started at 1050 MPN/100 g, and went to zero immediately upon treatment. This was clearly evidenced in five washes (all zero). Two samples were treated with >10 ppm iodine solutions and left to sit on the roof for several days. The bacterial levels were approximately zero at the end of the experiment. Samples that were imbibed with the >10 ppm solution and the sand raked, had bacterial levels that decreased in concentration during the days, and rebounded at night for two nights, and then ended up at zero, indicating effectiveness of the solution, and a benefit to combination of the solution with heat and/or light. The undisturbed controls in both dark and light ended up with countable bacteria at the end.
# In a first experiment showing the efficacy of the iodine treatment on bacteria in soil, a natural sample from Santa Monica beach was user. This soil sample was taken from an area close to a storm drain. Concentrations started at 1100 MPN enterococci per 100 gram sediment were used. Wash samples having a concentration of greater than 10 parts per million were used on the soil samples. Enterocci concentrations approached zero for all of five consecutive washes. A longer term experiment was then performed with sand dosed with a pure culture of enterococci, the >10 ppm iodine solution imbibed in the soil, and then autoclaving. The bacterial level started at 1050 MPN/100 g, and went to zero immediately upon treatment. This was clearly evidenced in five washes (all zero). […]
# enterococci [2] = assay: iodine wash of natural Santa Monica beach soil sample; assay type: cell-based; settings: started at 1100 MPN, wash samples greater than 10 parts per million, all of five consecutive washes
# Procedure: as §1, with “end. […]” for “end.”
smiles,measurement,setting,value
"II [iodine solution, molecular iodine]","bacterial levels at end, imbibed and raked sand","enterococci [1]; >10 ppm solution, sand raked, decreased during the days, rebounded at night for two nights",zero
same,bacterial level immediately upon treatment,"enterococci [1]; sand dosed with pure culture, started at 1050 MPN/100 g, >10 ppm iodine solution imbibed, five washes (all zero)",zero
same,bacterial levels at the end of the experiment,"enterococci [1]; two samples treated with >10 ppm iodine solutions, left to sit on the roof for several days",approximately zero
same,Enterocci concentrations after wash,enterococci [2],approximately zero
